The target of data set [1] is T1, ABCB1 (Homo sapiens, UniProt P08183). The following applies: cited from earlier work.
The next data set concerns the target ABCC1 (Homo sapiens, UniProt P33527). The following applies: cited from earlier work. Note: key: the inhibitor is active (+); it is inactive (−); the effect is unknown (?).
A further data set has as its target T2, ABCG2 (Homo sapiens, UniProt Q9UNQ0).
T2 sequence (Q9UNQ0 1-655): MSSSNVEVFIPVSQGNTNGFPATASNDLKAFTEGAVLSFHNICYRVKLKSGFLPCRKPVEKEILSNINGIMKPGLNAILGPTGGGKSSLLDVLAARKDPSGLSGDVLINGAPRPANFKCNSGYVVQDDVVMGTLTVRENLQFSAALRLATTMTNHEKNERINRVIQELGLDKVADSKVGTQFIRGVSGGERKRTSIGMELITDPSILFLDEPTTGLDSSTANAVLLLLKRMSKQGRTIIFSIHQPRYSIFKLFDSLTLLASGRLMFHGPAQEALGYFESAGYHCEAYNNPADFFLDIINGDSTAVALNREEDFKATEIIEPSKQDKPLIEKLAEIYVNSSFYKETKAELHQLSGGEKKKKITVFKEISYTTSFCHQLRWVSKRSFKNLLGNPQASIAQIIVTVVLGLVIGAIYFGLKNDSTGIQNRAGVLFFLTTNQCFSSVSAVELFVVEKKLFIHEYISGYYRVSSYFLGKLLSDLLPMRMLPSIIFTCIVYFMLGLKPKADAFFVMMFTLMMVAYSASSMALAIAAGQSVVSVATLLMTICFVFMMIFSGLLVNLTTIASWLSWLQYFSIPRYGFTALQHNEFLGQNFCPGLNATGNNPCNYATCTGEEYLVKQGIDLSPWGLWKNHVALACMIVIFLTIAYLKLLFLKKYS
The settings on record: cited from earlier work.

Another data set deals with T3, BCRP/ABCG2 (Homo sapiens, UniProt Q9UNQ0).
T3 construct: expressed in transfected cells; host or cells: HEK-293 transfected with pcDNA3.1-ABCG2
T3 sequence (Q9UNQ0 1-655): T2 sequence (Q9UNQ0 1-655)
The data set can be described thus: Flow cytometry: mitoxantrone efflux induced by ABCG2 in transfected HEK-293 cells. In kind it is cell-based. The source says:
(§1) Cell cultures. The human […] HEK-293 transfected with the vector pcDNA3.1 including or not the gene encoding ABCG2 (Robey, R. W., Honjo, Y., Morisaki, K., Nadjem, T. A., Runge, S., Risbood, M., Poruchynsky, M. S., Bates, S. E. 2003, Br. J. Cancer 89(10) 1971-1978) was used to test the efficacy of the products on ABCG2. The newborn hamster kidney cell line BHK21 either natural (negative control) or transfected with the vector pNUT-MRP/His expressing the gene encoding ABCC1 (Chang, Xiu-Bao, Hou, Yue-Xian, Riordan, John R. 1997, J. Biol. Chem. 272(49) 30962-30968) was used to test the efficacy of the products on ABCC1. The cell line NIH3T3 natural or transfected with the vector pHaMDR1/A expressing ABCB1 (Cardarelli, Carol O., Aksentijevich, Ivan, Pastan, Ira, Gottesman, Michael M. 1995 Cancer Res. 55 1086-1091) was used to test the efficacy of the compounds on ABCB1. The various cell types are cultured according to the protocols described previously (Robey, R. W., Honjo, Y., Morisaki, K., Nadjem, T. A., Runge, S., Risbood, M., Poruchynsky, M. S., Bates, S. E. 2003, Br. J. Cancer 89(10) 1971-1978 for the line HEK293, Chang, Xiu-Bao, Hou, Yue-Xian, Riordan, John R. 1997, J. Biol. Chem. 272(49) 30962-30968 for the line BHK21 and Cardarelli, Carol O., Aksentijevich, Ivan, Pastan, Ira, Gottesman, Michael M. 1995 Cancer Res. 55 1086-1091 for the line NIH3T3).
(§2) FIG. 1 schematically illustrates an efflux of substrate induced by a typical ABC transporter. The substrates S, such as mitoxantrone effluxed with ABCG2 and ABCB1 or daunorubicin effluxed with ABCC1, are accumulated in the cells and expelled by the transporter T, leading to a decrease in intracellular fluorescence. In the case of accumulation of the product, typically by inhibition of the efflux protein, the intracellular fluorescence increases.
(§3) Flow cytometry. Transfected or untransfected HEK-293 and BHK-21 cells are in a first stage placed in contact with substrate (5 μM mitoxantrone or 1 μM daunorubicin depending on the transporter). The substrate is accumulated for 30 minutes at 37° C. in the presence or absence of varied concentrations of the test molecules, at 0.5% of DMSO final. After washing with PBS, the cells are incubated in medium containing the same concentrations of test molecules as previously, for 1 hour at 37° C. The drug intracellular fluorescence is measured with a FACscan flow cytometer (Becton Dickinson, Mountain View, Calif.). The fluorescent substrates are excited at 488 nm; the fluorescence emission of mitoxantrone (MTX) is measured at 650 nm and that of daunorubicin is measured at 530 nm. The efficacy of the test molecules is estimated by means of equation 1:
(§4) % efficacy=100×(FA−FBG)/(FC−FBG),
(§5) in which: • FA corresponds to the intracellular level of substrate measured in the cells overexpressing the transporter T (corresponding to the lowest level of fluorescence in the absence of inhibitor), • FC corresponds to the fluorescence in the control cells not expressing the test transporter. This is thus the maximum accumulation of substrate in the cells), • FBG corresponds to the fluorescence measured in the absence of substrate and in the presence of inhibitor.
(§6) The compounds presented in TABLES 2 to 5 were tested by flow cytometry on mammalian cell lines selectively expressing the efflux proteins ABCG2, ABCB1 or ABCC1, as described previously.
(§7) The mitoxantrone efflux induced by ABCG2 or ABCB1 and the daunorubicin efflux induced by ABCC1 are estimated by flow cytometry, as described previously, at 10 μM of each test compound, and then at 2 μM for the compounds showing at least 80% efficacy at 10 μM. The concentration inducing 50% inhibition (IC50) was estimated for the most efficient aza derivatives. The values are obtained by three independent experiments and were adjusted using the SigmaPlot software.
A general note: Flow cytometry measures light scatter and fluorescence of single cells or particles in a stream.

A further data set addresses T4, P-gp/ABCB1 (Homo sapiens, UniProt P08183).
T4 construct: expressed in transfected cells; host or cells: NIH3T3 transfected with pHaMDR1/A
The data set can be described thus: Flow cytometry: mitoxantrone efflux induced by ABCB1 in transfected NIH3T3 cells. In kind it is cell-based.
Description: as §1, §2, §3, §4, §5, §6, §7

The target of data set [2] is T1, ABCB1. Put plainly: Type of inhibition: daunorubicin efflux at varied substrate and inhibitor concentrations (FIG. 11). Format: cell-based. Details: expressed in transfected cells; host or cells: NIH3T3 transfected with pHaMDR1/A. The settings on record: daunorubicin efflux as a function of its concentration.

The structures appear in SMILES notation.
Throughout, for active or inactive on ABCB1: key: the inhibitor is active (+); it is inactive (−); the effect is unknown (?).

T4 sequence (P08183 whole entry): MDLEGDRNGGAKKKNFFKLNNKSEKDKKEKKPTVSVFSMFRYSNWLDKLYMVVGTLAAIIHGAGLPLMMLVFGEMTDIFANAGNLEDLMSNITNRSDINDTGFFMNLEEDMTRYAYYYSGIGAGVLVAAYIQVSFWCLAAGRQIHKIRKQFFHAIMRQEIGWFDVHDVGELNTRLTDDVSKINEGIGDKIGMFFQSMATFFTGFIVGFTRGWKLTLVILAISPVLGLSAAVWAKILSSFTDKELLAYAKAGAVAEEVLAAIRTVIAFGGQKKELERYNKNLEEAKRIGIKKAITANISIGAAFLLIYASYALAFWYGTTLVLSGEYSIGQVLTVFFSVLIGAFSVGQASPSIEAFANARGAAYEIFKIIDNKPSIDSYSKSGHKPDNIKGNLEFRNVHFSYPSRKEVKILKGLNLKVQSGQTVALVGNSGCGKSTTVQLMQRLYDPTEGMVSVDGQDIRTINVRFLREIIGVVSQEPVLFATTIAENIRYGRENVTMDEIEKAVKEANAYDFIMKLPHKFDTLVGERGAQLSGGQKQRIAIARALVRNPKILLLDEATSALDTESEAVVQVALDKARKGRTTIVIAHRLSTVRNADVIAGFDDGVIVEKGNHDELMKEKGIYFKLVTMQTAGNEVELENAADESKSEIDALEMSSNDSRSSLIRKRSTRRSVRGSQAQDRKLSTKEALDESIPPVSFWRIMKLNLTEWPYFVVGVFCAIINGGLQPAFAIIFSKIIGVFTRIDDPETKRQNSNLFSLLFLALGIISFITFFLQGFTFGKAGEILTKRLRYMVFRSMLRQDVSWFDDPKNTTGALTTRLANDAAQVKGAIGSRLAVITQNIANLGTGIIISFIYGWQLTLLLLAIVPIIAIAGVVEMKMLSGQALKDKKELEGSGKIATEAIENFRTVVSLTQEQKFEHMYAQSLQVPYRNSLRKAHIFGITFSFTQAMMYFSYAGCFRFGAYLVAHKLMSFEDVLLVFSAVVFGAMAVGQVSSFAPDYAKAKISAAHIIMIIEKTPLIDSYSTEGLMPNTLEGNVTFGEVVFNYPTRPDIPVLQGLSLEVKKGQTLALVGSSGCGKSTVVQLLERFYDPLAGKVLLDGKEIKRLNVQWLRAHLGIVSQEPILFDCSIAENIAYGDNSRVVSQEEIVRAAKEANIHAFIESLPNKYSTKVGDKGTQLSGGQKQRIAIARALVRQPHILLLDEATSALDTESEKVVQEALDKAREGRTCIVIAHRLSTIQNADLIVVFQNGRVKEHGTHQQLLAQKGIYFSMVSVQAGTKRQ
T1 sequence (P08183 whole entry): as above
Sequence of ABCC1 (P33527 whole entry): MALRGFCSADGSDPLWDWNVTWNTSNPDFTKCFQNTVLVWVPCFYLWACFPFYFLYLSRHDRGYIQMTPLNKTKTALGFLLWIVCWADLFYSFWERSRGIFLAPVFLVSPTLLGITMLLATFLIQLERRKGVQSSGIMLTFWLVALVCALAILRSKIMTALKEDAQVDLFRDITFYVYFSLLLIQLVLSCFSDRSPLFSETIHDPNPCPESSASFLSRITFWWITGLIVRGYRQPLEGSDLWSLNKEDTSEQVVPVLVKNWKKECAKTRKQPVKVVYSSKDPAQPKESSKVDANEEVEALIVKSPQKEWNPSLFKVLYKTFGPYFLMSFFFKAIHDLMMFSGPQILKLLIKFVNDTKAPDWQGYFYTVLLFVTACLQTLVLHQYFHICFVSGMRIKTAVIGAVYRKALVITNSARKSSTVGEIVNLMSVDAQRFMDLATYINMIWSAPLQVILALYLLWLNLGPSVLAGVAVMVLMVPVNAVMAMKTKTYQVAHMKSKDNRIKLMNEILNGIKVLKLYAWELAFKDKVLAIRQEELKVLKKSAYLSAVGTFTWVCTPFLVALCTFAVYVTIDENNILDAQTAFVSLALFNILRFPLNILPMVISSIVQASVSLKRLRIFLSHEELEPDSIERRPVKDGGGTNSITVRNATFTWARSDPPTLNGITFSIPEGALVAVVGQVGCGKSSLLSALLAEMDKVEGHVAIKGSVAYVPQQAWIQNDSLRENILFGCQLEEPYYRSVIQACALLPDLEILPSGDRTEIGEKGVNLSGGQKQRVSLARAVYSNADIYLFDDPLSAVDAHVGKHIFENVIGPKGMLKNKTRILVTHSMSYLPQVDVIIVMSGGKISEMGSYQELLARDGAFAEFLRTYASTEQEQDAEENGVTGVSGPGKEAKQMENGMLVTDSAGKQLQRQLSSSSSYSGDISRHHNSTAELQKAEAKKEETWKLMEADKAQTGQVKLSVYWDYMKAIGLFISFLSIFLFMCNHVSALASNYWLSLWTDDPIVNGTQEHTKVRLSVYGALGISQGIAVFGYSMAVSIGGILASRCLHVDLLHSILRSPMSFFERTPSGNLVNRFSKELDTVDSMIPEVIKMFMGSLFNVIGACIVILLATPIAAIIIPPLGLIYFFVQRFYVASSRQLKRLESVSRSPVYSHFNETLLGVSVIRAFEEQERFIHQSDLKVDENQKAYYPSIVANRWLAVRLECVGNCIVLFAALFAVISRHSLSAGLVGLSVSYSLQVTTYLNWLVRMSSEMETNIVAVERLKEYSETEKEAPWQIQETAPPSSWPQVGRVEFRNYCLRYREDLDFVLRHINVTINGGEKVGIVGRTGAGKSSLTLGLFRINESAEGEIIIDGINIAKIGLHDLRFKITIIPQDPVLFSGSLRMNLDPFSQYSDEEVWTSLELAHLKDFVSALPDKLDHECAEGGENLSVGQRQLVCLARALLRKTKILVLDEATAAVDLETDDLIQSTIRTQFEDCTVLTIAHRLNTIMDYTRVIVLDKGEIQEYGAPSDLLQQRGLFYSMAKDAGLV

For the compound `COc1cc2c(cc1OC)CN(CCc1ccc(NC(=O)c3cccc4c(=O)c5cccc(OC)c5[nH]c34)cc1)CC2` [GF 120918, elacridar], the “active or inactive on ABCB1” value on ABCB1 [1] is recorded as “+”. For the same compound, at ABCC1, the “active or inactive on ABCC1” value is listed as “−”. Also, on ABCG2, the “active or inactive on ABCG2” value is on record as “+”.

As to `COC(=O)c1cnc2n1CCc1ccccc1C2=C1CCN(CCc2ccc(OCc3ccc4ccccc4n3)cc2)CC1` [R101933, laniquidar], on ABCB1 [1], the “active or inactive on ABCB1” value is “+”.

With `O[C@@H](COc1cccc2ncccc12)CN1CCN([C@@H]2c3ccccc3[C@@H]3[C@H](c4ccccc42)C3(F)F)CC1` [Ly335979, zosuquidar], the “active or inactive on ABCC1” value on ABCC1 is on record as “−”. Moreover, the “active or inactive on ABCG2” value at ABCG2 was “−”.

Consider `CCOC/C=C/c1ccc(-c2nc(-c3ccc(NC(C)C)cc3)c(-c3ccc(NC(C)C)cc3)[nH]2)cc1` [ONT-093, ontogen], for which the “active or inactive on ABCB1” value on ABCB1 [1] is given as “+”. The “active or inactive on ABCC1” value at ABCC1 is “−”.

With `COc1cc(C(=O)C(=O)N2CCCC[C@H]2C(=O)OC(CCCc2cccnc2)CCCc2cccnc2)cc(OC)c1OC` [VX-710, biricodar], the “active or inactive on ABCB1” value at ABCB1 [1] is listed as “+”. Also, at ABCC1, the “active or inactive on ABCC1” value is reported as “+”. Also, the “active or inactive on ABCG2” value at ABCG2 was “+”.

Regarding `COc1cc2c(cc1OC)CN(CCc1ccc(NC(=O)c3cc(OC)c(OC)cc3NC(=O)c3cnc4ccccc4c3)cc1)CC2` [XR9576, tariquidar], the “active or inactive on ABCB1” value on ABCB1 [1] is on record as “+”. In addition, the “active or inactive on ABCG2” value on ABCG2 is reported as “+”.

For `C/C=C/C[C@@H](C)C(=O)[C@H]1C(=O)N[C@@H](C(C)C)C(=O)N(C)CC(=O)N(C)[C@@H](CC(C)C)C(=O)N[C@@H](C(C)C)C(=O)N(C)[C@@H](CC(C)C)C(=O)N[C@@H](C)C(=O)N[C@H](C)C(=O)N(C)[C@@H](CC(C)C)C(=O)N(C)[C@@H](CC(C)C)C(=O)N(C)[C@@H](C(C)C)C(=O)N1C` [PSC833, valspodar], the “active or inactive on ABCB1” value at ABCB1 [1] is “+”. Besides, at ABCG2, the “active or inactive on ABCG2” value is listed as “−”.

By IC50 is commonly meant the concentration that gives 50% inhibition. A higher IC50 goes with a need for much substance. By melting point is commonly meant the temperature, or range, at which the solid turns liquid. The compound `CC(C)(C)OC(=O)NN(C(=O)N[C@@H](CCCCNC(=O)OCc1ccccc1)C(=O)OC(C)(C)C)c1ccc(C(=O)OCc2ccccc2)cc1` [IA.3, tert-Butyl ester of (2S)-6-(benzyloxycarbonylamino)-2-[1-(4′-(benzyloxycarbonyl)phenyl)-2-(tert-butoxycarbonyl)hydrazino-carbonylamino]hexanoic acid] displayed a melting point of 106 °C. Besides, at BCRP/ABCG2 (BCRP versus P-gp), the “selectivity toward one or other of the proteins BCRP or P-gp” value is given as “selective”. Moreover, the inhibition at 10 μM on BCRP/ABCG2 (human, HEK-293 cells transfected with ABCG2 (vector pcDNA3.1), probe mitoxantrone (5 μM), 10 μM compound, mitoxantrone efflux, HEK-293 cells, three independent experiments, read-out: BCRP/ABCG2 % efficacy 10 μM) worked out at 38%. At P-gp/ABCB1, this compound showed a concentration for half-maximal inhibition (IC50) of 330 nM. In addition, the inhibition at 2 μM on P-gp/ABCB1 (human, NIH3T3 cells transfected with ABCB1 (vector pHaMDR1/A), probe mitoxantrone (5 μM), 2 μM compound, read-out: P-gp/ABCB1 % efficacy 2 μM) is 90 ± 7%. Further, the inhibition at 10 μM at P-gp/ABCB1 (human, NIH3T3 cells transfected with ABCB1 (vector pHaMDR1/A), probe mitoxantrone (5 μM), 10 μM compound, read-out: P-gp/ABCB1 % efficacy 10 μM) amounted to 98 ± 14%. At ABCB1 [2], the “type of inhibition of ABCB1” value was “inhibition of noncompetitive type”.

Source of the values: patent publication US20120010161A1, “NOVEL AZAPEPTIDE OR AZAPEPTIDOMIMETIC COMPOUNDS INHIBITING BCRP AND/OR P-GP” (CENTRE NATIONAL DE LA RECHERCHE SCIENTIFIQUE, priority 2009, published 2012).
